This assay concerns 2×3 cm full-thickness skin wounds on the dorsum. Description: Guinea pig full-thickness skin wound closure (fractional change in wound area, closure rate, peak closure day). In kind it is in vivo, Hartley-derived guinea pigs. As to conditions: for Peak Closure Day (% Closure): % closure at the peak closure day; for Peak Closure Day: day of maximum closure rate, gel every 48 hours; for Closure % (Day) 50%: day on which 50% wound closure was reached, gel about 1 cc/cm^2 every 48 hours; for Peak closure rate (comparison in words): hormones in Agarose in saline (no medium), singly or three together; for Peak closure rate occurred later / closure rate of 50% slower: single hormone in Agarose in media; for Peak closure rate occurred later: compared to Media+3 hormones together; for closure rate of 50% slower: compared to the combination of the three hormones in media; for wound healing activity in medium relative to the same in saline: Agarose in medium vs Agarose in saline (without medium); for closure of 50% faster: single hormone in Agarose in saline (no medium), comparator not clearly stated. The protocol:
Under general anaesthesia of […], four 2×3 cm full-thickness skin patches were surgically extirpated from the dorsum of Hartley-derived guinea pigs. After application of the gel (about 1 cc/cm^2) to the wounds, the wounds were dressed with Omiderm, a polyurethane-based synthetic wound dressing (Omikron, Israel) and anchored with gauze and elastic adhesive bandage. Change of the bandages and administration of the gels were performed every 48 hours, under general anaesthesia, at which time in one group, the wounds were washed with ESDC disinfectant (Symbollon Corp., Mass., USA), washed with warm saline, measured and photographed. Computerized morphometric measurements of the photographs were made and the dynamics of the regeneration process were quantified and analyzed. A more detailed description and the results of these experiments is presented herein. Hartley-derived Albino guinea pigs weighing 300-400 grams were used in this study. The animals were housed in individual cages and fed regularly guinea pig chow and water enriched with Vitamin C ad libitum. […] All histological sections were prepared using Hematoxylene and Eosin stain as well as Mason's trichrome method for collagen. Each animal was anesthetized and four bilaterally symmetrical full-thickness skin segments measuring 2×3 cm were excised from the dorsum of each animal, two from the scapular region and two from the lumbar region. After washing the wounds with warm saline, the wounds were dressed with the gel at a concentration of about 1 cc/cm^2, covered with a polyurethane based synthetic membrane Omiderm (Omikron, Israel) and anchored with gauze, elastic adhesive and a […]., Italy). The dressings were changed every 48 hours under general anaesthesia, at which time the wounds were washed with warm saline to remove any debris and the remaining gel within the wound, measured, photographed and fresh gel was applied and the wounds dressed as described above. In one experiment, a disinfectant compress of ESDC (Symbollon, Corp.) was applied during the change of dressing for about ten minutes, preceded and followed by warm saline rinse. At days 4, 6, 8, 10 and 12, the animals were sacrificed and the wounds with the surrounding tissues were extirpated and prepared for histological examination. The thickness of the newly formed epithelial layer and of the underlying granulation tissue were measured using light microscopy (Zeiss) at 100×magnification. The wound macrophotographs were analyzed using ImageMeasure (Phoenix Corp., Seattle, Wash.) computerized morphometric program and the experimental results were plotted as graphs showing the fractional change in area (i.e. closure rate) of the wounds treated with gel-media+hormones versus the various controls. The wound closure rate was tabulated and peak closure day (% closure) was determined. Peak closure rate has been used as a measure of wound healing potency. Peak closure rate is the maximum slope of the [formula] vs. time curve. Peak closure rate indicates the time after the start of the treatment at which tissue healing or growth rate reaches a maximum value (maximum rate); i.e., when the treatment is optimal.

With `N[C@@H](Cc1cc(I)c(Oc2cc(I)c(O)c(I)c2)c(I)c1)C(=O)O` [thyroxine, reference compound], the “concentration level relative to triiodothyronine giving the same effect” value (relative to triiodothyronine) is recorded as 3-5 times.

Consider “Growth Hormone: human growth hormone at 2 ng/ml in Agarose gel, in saline or in medium”, for which the “Peak Closure Day (% Closure)” value was 50%, the “Peak Closure Day” value was 6.0 days, the “Closure % (Day) 50%” value is 6.0 days and the “Peak closure rate (comparison in words)” value is reported as “the same”. For the same molecule, the “Peak closure rate occurred later” value stood at 33% and the “closure rate of 50% slower” value is reported as 75%.

Insulin: the “Peak Closure Day (% Closure)” value was 30%, the “wound healing activity in medium relative to the same in saline” value was “substantially enhanced wound healing activity”, the “Peak Closure Day” value came out at 3.0 days and the “Closure % (Day) 50%” value amounted to 5.0 days. The “Peak closure rate (comparison in words)” value was “the same”, the “Peak closure rate occurred later” value was determined as 33%, the “closure rate of 50% slower” value was 75% and the “closure of 50% faster” value is 15%. For the same molecule, where the note is “Agarose in medium, IGF at 8 ng/ml, through day 9”, the “wound healing, medium plus insulin vs medium plus IGF” value was “substantially better”.

For the molecule “Triiodothyronine/thyroxine [reference compound]”, the “Peak Closure Day (% Closure)” value stood at 30%, the “wound healing activity in medium relative to the same in saline” value was “substantially enhanced wound healing activity”, the “Peak Closure Day” value is 3.0 days and the “Closure % (Day) 50%” value was determined as 5.0 days. The “Peak closure rate (comparison in words)” value was “the same”, the “Peak closure rate occurred later” value is given as 33%, the “closure rate of 50% slower” value came to 75% and the “closure of 50% faster” value was determined as 15%.

Values taken from US5591709A, “Compositions and methods for treating wounds” (Life Medical Sciences, Inc., priority 1995, dated 1997).
